Data published in PMC4987650, “Structural Investigation of Park’s Nucleotide on Bacterial Translocase MraY: Discovery of Unexpected MraY Inhibitors” (Scientific Reports, 2016).
“Also recorded” adds a separate entry of the source. Where two headings read alike, the source gives them in different places. Numbered stars: 1 amine (or outer) side, 2 acyl side, 3 side chain; on linkers, the order of the positions; unused ones are H or OH. Square brackets hold non-standard residues; d marks the D form. Peptide text beside a SMILES is read from it. * marks the point of attachment. UDPMurNAc = CC(=O)N[C@H]1[C@@H](OP(=O)(O)OP(=O)(O)OC[C@H]2O[C@@H](n3ccc(=O)[nH]c3=O)[C@H](O)[C@@H]2O)O[C@H](CO)[C@@H](O)[C@@H]1O[C@H](C)C(=O)*; d(γGlu) = O=C(O)[C@@H](CCC(=O)[*:2])N[*:1]; NBD = O=[N+]([O-])c1ccc(*)c2nonc12; GABA = NCCCC(=O)O

Columns and labels:
[1] = target: T1, MraYBS (Bacillus subtilis, UniProt Q03521); assay: HPLC-based MraY functional assay (substrate activity); format: biochemical; conditions: for substrate under extreme reaction conditions: Park's nucleotides 10 μM, MraYBS 40 μg/mL, C55P 1 mM, 24 h; for substrate under extreme reaction conditions / recognized as a MraYBS substrate / conversion %: 37 °C; for recognized as a MraYBS substrate: analogue 10 μM, C55P 200 μM; for recognized as a MraYBS substrate / conversion %: MraYBS 10 μg/mL; for conversion %: lipid phosphates 200 μM, NBD-Park's nucleotide (6) 10 μM, 1 h, from consumption of 6, n = 3, average ± SD
T1 construct: MBP; made in house
T1 sequence (Q03521 1-324): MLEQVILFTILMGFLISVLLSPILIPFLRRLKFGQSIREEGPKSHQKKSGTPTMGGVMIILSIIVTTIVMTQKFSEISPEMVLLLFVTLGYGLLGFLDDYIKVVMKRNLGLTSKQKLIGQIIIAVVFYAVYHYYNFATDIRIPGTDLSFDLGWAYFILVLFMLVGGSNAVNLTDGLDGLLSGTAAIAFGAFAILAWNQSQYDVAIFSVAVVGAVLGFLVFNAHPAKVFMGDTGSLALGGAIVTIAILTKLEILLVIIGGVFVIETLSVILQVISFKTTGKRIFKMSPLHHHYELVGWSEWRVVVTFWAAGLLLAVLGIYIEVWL
Protocol: The purified MraY from Bacillus subtilis was prepared as described in our previous reports. […] […] The reaction mixtures were added by uridine (0.01 mg/mL) as the internal standard and heated to 100 °C to stop the transferring reaction. The samples were analyzed by RP-C18 HPLC with gradient elution of 0.25 M NH4HCO3(aq)/15% MeOH in water (100:0 to 0:100) at a flow rate of 1 mL/min over 45 min, and the peaks of substrates were monitored at UV 260 nm. For 6 and 11–17, the reaction mixture containing MraYBS (10 μg/mL), C55P (200 μM), 6-(7-Nitro-2,1,3-benzoxadiazol-4-ylamino)hexanoic acid (5 μM, internal standard) in 10 μL reaction buffer (30 mM Tris, 10 mM MgCl2, 10 mM NaCl, 0.1 mM Tween-20, 2.5% DMSO, pH 8.0) were pre-incubated at 37 °C for 15 min. […] The reaction mixtures were heated to 100 °C to stop the transferring reaction, and samples were analyzed by an anion-exchange column (SAX1, Supelco Co., 5 μm, 4.6 × 250 mm) with a linear gradient elution of NH4OAc (20 mM to 1 M in MeOH) at a flow rate of 1.0 mL/min over 30 min. The fluorescent substrates were monitored with λex 466 nm/λem 535 nm by fluorescence detector.

[2] = target: T1, MraYBS; assay: Biolayer interferometry-based (BLI) binding assay; conditions: for binding affinity with MraYBS: concentrations up to 500 μM
Protocol: MraYBS binding was measured in a biolayer interferometry-based binding assay on Octet Red96® instrument (ForteBio, Inc.). The biotinylation of MraYBS was performed with using EZ-Link® Sulfo-NHS-LC-LC-Biotin Kit (Thermo Fisher Scientific, Inc.). In general, MraYBS (1.7 mg/mL) in 50 μL reaction buffer (0.01 M HEPES pH 7.4, 0.15 M NaCl, 0.005% v/v Surfactant P20), was added by the sulfo-NHS-LC-LC-biotin reagent (1 mM, 1 μL). After incubating for 30 minutes at room temperature, the biotinylated-MraYBS was purified by a Zeba^TM Spin Desalting Columns, 7K MWCO (Thermo Fisher Scientific, Inc.), and the buffer was changed to the binding buffer (30 mM Tris, 10 mM MgCl2, 10 mM NaCl, 0.1 mM Tween-20, pH 8.0) during the purification. Comparing to the non-biotinylated-MraYBS, the biotinylated-MraYBS remains 62% activity measured by the HPLC-based MraY functional assay in 1 h reaction. The biotinylated MraYBS was then immobilized to Super Streptavidin (SSA) Octet tips (ForteBio, Inc.) for reaching a fixed signal of 3 nm. Before the assay starting, the MraYBS-labeled SSA sensors were pre-soaked in binding buffer for 30 min. The association of Park’s analogues with MraYBS were measured by incubating MraYBS-labeled SSA sensors in binding buffer containing various concentrations of samples in Octet Red system. The dissociation was monitored by moving the ligand biosenors from the analyte solution to binding buffer. The dissociation constants (KD) were obtained by nonlinear regression analysis using the specific binding model with the GraphPad Prism program (GraphPad Software, San Diego, CA).

[3] = target: T1, MraYBS; assay: MraY fluorescence enhancement assay (kinetics, inhibition); format: biochemical; conditions: for Inhibition Mode: Lineweaver-Burk
Protocol: Determine kinetic parameters by MraY fluorescence enhancement assay. The fluorescence enhancement assay was performed in 384-well plate as described by Bugg et al. with slight modifications.5 The reaction mixture containing MraYBS (10 μg/mL), C55P (200 μM) in 30 μL reaction buffer (30 mM Tris, 10 mM MgCl2, 10 mM NaCl, 0.1 mM Tween-20, 2.5% DMSO, pH 8.0) were pre-incubated at 37 °C for 15 min. The reactions were initiated by the addition of various concentrations of NBD-Park’s nucleotide 6 (0 to 160 μM). For inhibition study, a various concentrations of inhibitors were added before the addition of substrate 6. The continuous fluorescence increase over 60 min was monitored with λex 466 nm/λem 535 nm by fluorescence microplate reader (SpectraMax M5, Molecular Devices, LLC) at 37 °C. Linear regressions of increased fluorescent units (FLU) versus time (min) were used to calculate the initial velocities for each reaction. The kinetic parameters values (Ki, KM, and Vmax) were obtained by nonlinear regression analysis using the […] equation with the GraphPad Prism program (GraphPad Software, San

CC(=O)N[C@H]1[C@@H](OP(=O)(O)OP(=O)(O)OC[C@H]2O[C@@H](n3ccc(=O)[nH]c3=O)[C@H](O)[C@@H]2O)O[C@H](CO)[C@H](O)[C@@H]1O[C@H](C)C(=O)N[C@@H](C)C(=O)N[C@H](CCC(=O)N[C@@H](CCCCNc1ccc([N+](=O)[O-])c2nonc12)C(=O)N[C@H](C)C(=O)N[C@H](C)C(=O)O)C(=O)O [Compound 11]
substrate under extreme reaction conditions [1]: did not function as substrates; also recorded: not be a substrate

CC(=O)N[C@H]1[C@@H](OP(=O)(O)OP(=O)(O)OC[C@H]2O[C@@H](n3ccc(=O)[nH]c3=O)[C@H](O)[C@@H]2O)O[C@H](CO)[C@@H](O)[C@@H]1O[C@H](C)C(=O)N[C@@H](C)C(=O)N[C@H](CCC(=O)N[C@@H](CCCCN)C(=O)O)C(=O)O [Compound 7]
activity reduced compared with 5 ([1]; after 1 h reaction): 17%

CC(=O)N[C@H]1[C@@H](OP(=O)(O)OP(=O)(O)OC[C@H]2O[C@@H](n3cc(N)c(=O)[nH]c3=O)[C@H](O)[C@@H]2O)O[C@H](CO)[C@@H](O)[C@@H]1O[C@H](C)C(=O)N[C@@H](C)C(=O)N[C@H](CCC(=O)N[C@@H](CCCCNc1ccc([N+](=O)[O-])c2nonc12)C(=O)N[C@H](C)C(=O)N[C@H](C)C(=O)O)C(=O)O [Compound 17]
substrate under extreme reaction conditions [1]: did not function as substrates; also recorded: not be a substrate

CC(=O)N[C@H]1[C@@H](OP(=O)(O)OP(=O)(O)OC[C@H]2O[C@@H](n3ccc(=O)[nH]c3=O)[C@H](O)[C@@H]2O)O[C@H](CO)[C@@H](O)[C@@H]1O[C@H](C)C(=O)NCC(=O)N[C@H](CCC(=O)N[C@@H](CCCCNc1ccc([N+](=O)[O-])c2nonc12)C(=O)N[C@H](C)C(=O)N[C@H](C)C(=O)O)C(=O)O [Compound 15] (UDPMurNAc-G[d(γGlu)]K(NBD)[dA][dA]-OH)
relative activity compared to 6 ([1]; after 1 h reaction): about 80%

CC(=O)N[C@H]1[C@@H](OP(=O)(O)OP(=O)(O)OC[C@H]2O[C@@H](n3ccc(=O)[nH]c3=O)[C@H](O)[C@@H]2O)O[C@H](CO)[C@@H](O)[C@@H]1O[C@H](C)C(=O)N[C@@H](C)C(=O)O [Compound 9]
recognized as a MraYBS substrate [1]: not substrates
binding affinity with MraYBS [2]: no proper binding affinity

CC(=O)N[C@H]1[C@@H](OP(=O)(O)OP(=O)(O)OC[C@H]2O[C@@H](n3ccc(=O)[nH]c3=O)[C@H](O)[C@@H]2O)O[C@H](CO)[C@@H](O)[C@@H]1O[C@H](C)C(=O)N[C@@H](C)C(=O)NCCCC(=O)N[C@@H](CCCCNc1ccc([N+](=O)[O-])c2nonc12)C(=O)N[C@H](C)C(=O)N[C@H](C)C(=O)O [Compound 16] (UDPMurNAc-A[GABA]K(NBD)[dA][dA]-OH)
relative activity compared to 6 ([1]; after 1 h reaction): < 10%
binding affinity with MraYBS [2]: no proper binding affinity

Tunicamycins [reference compound]
Kd ([2]; BLI, without C55P, read-out: KD): 93 ± 16 µM
Ki ([3]; 6 as substrate, C55P 200 μM, read-out: Ki): 9 ± 1 µM
Inhibition Mode ([3]; 6 as substrate): Competitive

CC(=O)N[C@H]1[C@@H](OP(=O)(O)OP(=O)(O)OC[C@H]2O[C@@H](n3ccc(=O)[nH]c3=O)[C@H](O)[C@@H]2O)O[C@H](CO)[C@@H](O)[C@@H]1O[C@H](C)C(=O)N[C@@H](C)C(=O)N[C@H](CCC(=O)O)C(=O)O [Compound 8]
substrate activity remained ([1]; after 1 h reaction, compared with 5): 40%

CC(C)=CCC/C(C)=C/CC/C(C)=C/CC/C(C)=C/CC/C(C)=C/CC/C(C)=C/CO [Hexaprenol, reference compound]
conversion % [1]: 27 ± 6%

CC(=O)N[C@H]1[C@@H](OP(=O)(O)OP(=O)(O)OC[C@H]2O[C@@H](n3cc(N)c(=O)[nH]c3=O)[C@H](O)[C@@H]2O)O[C@H](CO)[C@@H](O)[C@@H]1O[C@H](C)C(=O)N[C@@H](C)C(=O)O [Compound 18]
inhibitory activity ([3]; at 1 mM): no inhibition activity

CC(=O)Nc1cn([C@@H]2O[C@H](COP(=O)(O)OP(=O)(O)O[C@H]3O[C@H](CO)[C@@H](O)[C@H](O[C@H](C)C(=O)N[C@@H](C)C(=O)O)[C@H]3NC(C)=O)[C@@H](O)[C@H]2O)c(=O)[nH]c1=O [Compound 19]
Kd [2]: 281 ± 97 µM
Ki [3]: 764 ± 127 µM
Inhibition Mode ([3]; 6 as substrate): Competitive

CC(=O)N[C@H]1[C@@H](OP(=O)(O)OP(=O)(O)OC[C@H]2O[C@@H](n3ccc(=O)[nH]c3=O)[C@H](O)[C@@H]2O)O[C@H](CO)[C@@H](O)[C@@H]1O [Compound 10, UDP-GlcNAc, reference compound]
recognized as a MraYBS substrate [1]: not substrates

CC(=O)N[C@H]1[C@@H](OP(=O)(O)OP(=O)(O)OC[C@H]2O[C@@H](n3cc(NC(=O)Cc4ccc(C)cc4)c(=O)[nH]c3=O)[C@H](O)[C@@H]2O)O[C@H](CO)[C@H](O)[C@@H]1O[C@H](C)C(=O)N[C@@H](C)C(=O)O [Compound 21]
Kd ([2]; BLI, without C55P): > 250 µM
binding interactions with MraYBS ([2]; concentration up to 250 μM): no sufficient binding interactions
inhibition at 1000 µM [3]: 30%

CC(C)=CCC/C(C)=C/CC/C(C)=C/CC/C(C)=C/CC/C(C)=C/CC/C(C)=C/CC/C(C)=C/CO [Heptaprenol, reference compound]
conversion % [1]: 55 ± 3%

CC(=O)N[C@H]1[C@@H](OP(=O)(O)OP(=O)(O)OC[C@H]2O[C@@H](n3ccc(=O)[nH]c3=O)[C@H](O)[C@@H]2O)O[C@H](CO)[C@@H](O)[C@@H]1O[C@H](C)C(=O)N[C@@H](C)C(=O)N[C@H](CCC(=O)N[C@@H](CCCCN)C(=O)N[C@H](C)C(=O)N[C@H](C)C(=O)O)C(=O)O [Compound 5, Park’s nucleotide]
substrate consumption ([1]; C55P (200 μM) as polyprenyl phosphate substrate, substrate 10 μM, within 1 h (60 min)): completely consumed
Kd [2]: 120 µM

CC(C)=CCC/C(C)=C/CC/C(C)=C/CC/C(C)=C/CC/C(C)=C/CC/C(C)=C/CC/C(C)=C/CC/C(C)=C/CC/C(C)=C/CO [Solanesol, reference compound]
conversion % [1]: 12 ± 2%

CC(C)=CCC/C(C)=C/CC/C(C)=C/CC/C(C)=C/CC/C(C)=C/CC/C(C)=C/CC/C(C)=C/CC/C(C)=C/CC/C(C)=C/CC/C(C)=C/CC/C(C)=C/CO [Undecaprenol, reference compound]
conversion % [1]: 96 ± 1%

CC(C)=CCCC(C)=CCCC(C)=CCCC(C)=CCO [Tetraprenol, reference compound]
conversion % [1]: 16 ± 5%
